Experimental findings from US20120270864A1, “2-QUINOLINONE AND 2-QUINOXALINONE-DERIVATIVES AND THEIR USE AS ANTIBACTERIAL AGENTS” (ASTRAZENECA AB, priority 2006, published 2012) are described below.

The test system of this assay is Staphylococcus aureus (Sau) 516 cells. Kind of assay: Bacterial Susceptibility Testing Methods 2 (microbroth dilution, growth inhibition). In kind it is cell-based. From the text: Compounds may be tested for antimicrobial activity by susceptibility testing using microbroth dilution methods recommended by CSLI. Compounds may be dissolved in dimethylsulfoxide and tested in 10 doubling dilutions in the susceptibility assays such that the final dimethylsulfoxide concentration in the assay is 2% (v/v). The Staphylococcus aureus (Sau) 516 cells used in the assay may be grown overnight on appropriate agar media and then suspended in the NCCLS-recommended liquid susceptibility-testing media. […] Plates may be incubated under appropriate conditions of atmosphere and temperature and for times according to NCCLS standard methods prior to being read. As used in Table 1 below, the term “inhibition” refers to the percentage of Staphylococcus aureus 516 cell growth that is suppressed (compared to an untreated sample) by the compound of the indicated example number. When tested in the above in-vitro assay, the compounds and salts of the example numbers listed below were tested at the indicated concentrations, providing the indicated inhibitions. In most instances, the highest concentrations at which the compounds were tested was 8 μg/mL. In some instances, however, compounds were tested at concentrations higher than 8 μg/mL, typically when the concentration was first measured in μM and was subsequently converted to μg/mL. In those cases in which compounds were tested at more than one concentration higher than 8 μg/mL, the concentration closest to 8 μg/mL is provided below.
(In general: Broth dilution looks for growth in wells or tubes with falling amounts of substance.)

The mark [1] stands for this setting: Staphylococcus aureus, Tested Concentration 8 μg/mL, Staphylococcus aureus 516 cell growth suppressed compared to untreated sample.
[2] abbreviates: Tested Concentration 8 μg/mL, Staphylococcus aureus 516 cell growth suppressed compared to untreated sample.

By inhibition is commonly meant the relative decrease from the control value, in per cent. Lower therefore signals a weak effect. `COc1ccc2ncc(=O)n(CCN3CC[C@@H](NCc4ccc5c(n4)NC(=O)CO5)[C@@H](O)C3)c2c1` [Example 11, 6-[({(3S,4R)-3-Hydroxy-1-[2-(7-methoxy-2-oxoquinoxalin-1(2H)-yl)ethyl]piperidin-4-yl}amino)methyl]-2H-pyrido[3,2-b][1,4]oxazin-3(4H)-one] yielded an inhibition at 8 µg/mL under setting [1] of 100%.

Take `N#Cc1ccc2ccc(=O)n(CCN3CC[C@@H](NCc4cc5c(cn4)OCCO5)[C@@H](F)C3)c2c1` [Example 12, 1-(2-{(3S,4R)-4-[(2,3-Dihydro[1,4]dioxino[2,3-c]pyridin-7-ylmethyl)amino]-3-fluoropiperidin-1-yl}ethyl)-2-oxo-1,2-dihydroquinoline-7-carbonitrile]: under setting [1], the inhibition at 8 µg/mL is 100%.

`N#Cc1ccc2ccc(=O)n(CCN3CC[C@H](NCc4cc5c(cn4)OCCO5)[C@H](F)C3)c2c1` [Example 13, 1-(2-{(3R,4S)-4-[(2,3-Dihydro[1,4]dioxino[2,3-c]pyridin-7-ylmethyl)amino]-3-fluoropiperidin-1-yl}ethyl)-2-oxo-1,2-dihydro quino line-7-carbonitrile] returned an inhibition at 8 µg/mL under setting [1] of 100%.

In the case of `COc1ccc2ncc(=O)n(CCN3CC[C@@H](NCc4cc5c(cn4)OCCO5)[C@@H](OC)C3)c2c1` [Example 14, 1-(2-{(3S,4R)-4-[(2,3-Dihydro[1,4]dioxino[2,3-c]pyridin-7-ylmethyl)amino]-3-methoxypiperidin-1-yl}ethyl)-7-methoxyquinoxalin-2(1H)-one], the inhibition at 8 µg/mL under setting [1] turned out to be 100%.

Turning to `COc1ccc2ncc(=O)n(CCN3CC[C@@H](NCc4ccc5c(n4)NC(=O)CO5)[C@@H](OC)C3)c2c1` [Example 15, 6-[({(3S,4R)-3-Methoxy-1-[2-(7-methoxy-2-oxoquinoxalin-1(2H)-yl)ethyl]piperidin-4-yl}amino)methyl]-2H-pyrido[3,2-b][1,4]oxazin-3 (4H)-one], under setting [1], at 8 µg/mL the inhibition was 97%.

`COc1ccc2ncc(=O)n(CCN3CC[C@H](NCc4cc5c(cn4)OCCO5)[C@H](OC)C3)c2c1` [Example 16, 1-(2-{(3R,4S)-4-[(2,3-Dihydro[1,4]dioxino[2,3-c]pyridin-7-ylmethyl)amino]-3-methoxypiperidin-1-yl}ethyl)-7-methoxyquinoxalin-2(1H)-one] gave an inhibition at 8 µg/mL under setting [1] of 97%.

Under setting [1], `COc1ccc2ncc(=O)n(CCN3CC[C@H](NCc4ccc5c(n4)NC(=O)CO5)[C@H](OC)C3)c2c1` [Example 17, 6-[({(3R,4S)-3-Methoxy-1-[2-(7-methoxy-2-oxoquinoxalin-1(2H)-yl)ethyl]piperidin-4-yl}amino)methyl]-2H-pyrido[3,2-b][1,4]oxazin-3(4H)-one] registered an inhibition at 8 µg/mL of 99%.

On to `COc1ccc2ncc(=O)n(CCN3CC[C@H](NCc4ccc5c(n4)NC(=O)CS5)[C@H](OC)C3)c2c1` [Example 18], for which, under setting [2], the “Inhibition (%)” value was 95%.

`CO[C@H]1CN(CCn2c(=O)ccc3ccc(C#N)cc32)CC[C@H]1NCc1cc2c(cn1)OCCO2` [Example 19, 1-(2-{(3S,4R)-4-[(2,3-Dihydro[1,4]dioxino[2,3-c]pyridin-7-ylmethyl)amino]-3-methoxypiperidin-1-yl}ethyl)-2-oxo-1,2-dihydro quinoline-7-carbonitrile] gave an inhibition at 8 µg/mL under setting [1] of 100%.

For the compound `CO[C@H]1CN(CCn2c(=O)ccc3ccc(C#N)cc32)CC[C@H]1NCc1ccc2c(n1)NC(=O)CO2` [Example 20, 1-[2-((3S,4R)-3-M ethoxy-4-{[(3-oxo-3,4-dihydro-2H-pyrido[3,2-b][1,4]oxazin-6-yl)methyl]amino}piperidin-1-yl)ethyl]-2-oxo-1,2-dihydro quino line-7-carbonitrile], under setting [1], the inhibition at 8 µg/mL stood at 100%.

On to `CO[C@H]1CN(CCn2c(=O)ccc3ccc(C#N)cc32)CC[C@H]1NCc1ccc2c(n1)NC(=O)CS2` [Example 21, 1-[2-((3S,4R)-3-M ethoxy-4-{[(3-oxo-3,4-dihydro-2H-pyrido[3,2-b][1,4]thiazin-6-yl)methyl]amino}piperidin-1-yl)ethyl]-2-oxo-1,2-dihydro quino line-7-carbonitrile], for which, under setting [1], the inhibition at 8 µg/mL was determined as 100%.

`CO[C@@H]1CN(CCn2c(=O)ccc3ccc(C#N)cc32)CC[C@@H]1NCc1cc2c(cn1)OCCO2` [Example 22, 1-(2-{(3R,4S)-4-[(2,3-Dihydro[1,4]dioxino[2,3-c]pyridin-7-ylmethyl)amino]-3-methoxypiperidin-1-yl}ethyl)-2-oxo-1,2-dihydroquinoline-7-carbonitrile] yielded an inhibition at 8 µg/mL under setting [1] of 100%.

Take `CO[C@@H]1CN(CCn2c(=O)ccc3ccc(C#N)cc32)CC[C@@H]1NCc1ccc2c(n1)NC(=O)CO2` [Example 23, 1-[2-((3R,4S)-3-M ethoxy-4-{[(3-oxo-3,4-dihydro-2H-pyrido[3,2-b][1,4]oxazin-6-yl)methyl]amino}piperidin-1-yl)ethyl]-2-oxo-1,2-dihydro quino line-7-carbonitrile]: 8 µg/mL produced 100% inhibition under setting [1].

For the compound `CO[C@@H]1CN(CCn2c(=O)ccc3ccc(C#N)cc32)CC[C@@H]1NCc1ccc2c(n1)NC(=O)CS2` [Example 24, 1-[2-((3R,4S)-3-Methoxy-4-{[(3-oxo-3,4-dihydro-2H-pyrido[3,2-b][1,4]thiazin-6-yl)methyl]amino}piperidin-1-yl)ethyl]-2-oxo-1,2-dihydro quino line-7-carbonitrile], under setting [1], at 8 µg/mL the inhibition was 100%.

`COc1ccc2ncc(=O)n(CCN3CC[C@H](NCc4cc5c(cn4)OCCO5)[C@@H](OC)C3)c2c1` [Example 25, 1-(2-{(3S,4S)-4-[(2,3-Dihydro[1,4]dioxino[2,3-c]pyridin-7-ylmethyl)amino]-3-methoxypiperidin-1-yl}ethyl)-7-methoxyquinoxalin-2(1H)-one] displayed an inhibition at 8 µg/mL under setting [1] of 98%.

Under setting [1], `COc1ccc2ncc(=O)n(CCN3CC[C@H](NCc4ccc5c(n4)NC(=O)CO5)[C@@H](OC)C3)c2c1` [Example 26, 6-[({(3S,4S)-3-Methoxy-1-[2-(7-methoxy-2-oxoquinoxalin-1(2H)-yl)ethyl]piperidin-4-yl}amino)methyl]-2H-pyrido[3,2-b][1,4]oxazin-3(4H)-one] registered an inhibition at 8 µg/mL of 98%.

`COc1ccc2ncc(=O)n(CCN3CC[C@@H](NCc4cc5c(cn4)OCCO5)[C@H](OC)C3)c2c1` [Example 27, 1-(2-{(3R,4R)-4-[(2,3-Dihydro[1,4]dioxino[2,3-c]pyridin-7-ylmethyl)amino]-3-methoxypiperidin-1-yl}ethyl)-7-methoxyquinoxalin-2(1H)-one]: 8 µg/mL produced 87% inhibition under setting [1].

`COc1ccc2ncc(=O)n(CCN3CC[C@@H](NCc4ccc5c(n4)NC(=O)CO5)[C@H](OC)C3)c2c1` [Example 28, 6-[({(3R,4R)-3-Methoxy-1-[2-(7-methoxy-2-oxoquinoxalin-1(2H)-yl)ethyl]piperidin-4-yl}amino)methyl]-2H-pyrido[3,2-b][1,4]oxazin-3(4H)-one]: under setting [1], the inhibition at 8 µg/mL came out at 98%.

Turning to `N#Cc1ccc2ccc(=O)n(CCN3CCC(NCc4ccc5c(n4)NC(=O)CO5)C(F)C3)c2c1` (centres unmarked) [Example 34], the “Inhibition (%)” value (Tested Concentration 12 μg/mL, Staphylococcus aureus 516 cell growth) was 91%.

Consider `CO[C@@H]1CN(CCn2c(=O)ccc3ccc(C#N)cc32)CC[C@H]1NCc1cc2c(cn1)OCCO2` [Example 41, 1-(2-{(3R,4R)-4-[(2,3-dihydro[1-yl]dioxino[2,3-c]pyridin-7-ylmethyl)amino]-3-methoxypiperidin-1-yl}ethyl)-2-oxo-1,2-dihydro quinoline-7-carbonitrile], for which the “Inhibition (%)” value under setting [2] turned out to be 100%.

`CO[C@@H]1CN(CCn2c(=O)ccc3ccc(C#N)cc32)CC[C@H]1NCc1ccc2c(n1)NC(=O)CO2` [Example 42, 1-[2-((3R,4R)-3-methoxy-4-{[(3-oxo-3,4-dihydro-2H-pyrido[3,2-b][1,4]oxazin-6-yl)methyl]amino}piperidin-1-yl)ethyl]-2-oxo-1,2-dihydroquinoline-7-carbonitrile]: 8 µg/mL produced 100% inhibition under setting [1].

The compound `CO[C@H]1CN(CCn2c(=O)ccc3ccc(C#N)cc32)CC[C@@H]1NCc1cc2c(cn1)OCCO2` [Example 43, 1-(2-{(3S,4S)-4-[(2,3-Dihydro[1,4]dioxino[2,3-c]pyridin-7-ylmethyl)amino]-3-methoxypiperidin-1-yl}ethyl)-2-oxo-1,2-dihydroquinoline-7-carbonitrile] displayed an inhibition at 4 µg/mL (Staphylococcus aureus, Tested Concentration 4 μg/mL, Staphylococcus aureus 516 cell growth) of 100%. Under setting [1], this compound returned an inhibition at 8 µg/mL of 12%.

Turning to `CO[C@H]1CN(CCn2c(=O)ccc3ccc(C#N)cc32)CC[C@@H]1NCc1ccc2c(n1)NC(=O)CO2` [Example 44, 1-[2-((3S,4S)-3-Methoxy-4-{[(3-oxo-3,4-dihydro-2H-pyrido[3,2-b][1,4]oxazin-6-yl)methyl]amino}piperidin-1-yl)ethyl]-2-oxo-1,2-dihydroquinoline-7-carbonitrile], at 8 µg/mL the inhibition under setting [1] was 100%.

`COc1ccc2ncc(=O)n(CCN3CC[C@@H](NCc4ccc5c(n4)NC(=O)CO5)[C@@H](F)C3)c2c1` [Example 45, 6-[({(3S,4R)-3-Fluoro-1-[2-(7-methoxy-2-oxoquinoxalin-1(2H)-yl)ethyl]piperidin-4-yl}amino)methyl]-2H-pyrido[3,2-b][1,4]oxazin-3(4H)-one] returned an inhibition at 8 µg/mL under setting [1] of 97%.

With `COc1ccc2ncc(=O)n(CCN3CC[C@H](NCc4ccc5c(n4)NC(=O)CO5)[C@H](F)C3)c2c1` [Example 46, 6-[({(3R,4S)-3-Fluoro-1-[2-(7-methoxy-2-oxoquinoxalin-1(2H)-yl)ethyl]piperidin-4-yl}amino)methyl]-2H-pyrido[3,2-b][1,4]oxazin-3 (4H)-one], the inhibition at 8 µg/mL under setting [1] was 100%.
